Entries after “also recorded” stand apart in the source; their conditions may differ.
Legend:
[1] = test system: c-GMP in slices of thoracic aorta of rats; test: Cyclic-GMP measurement in aortic rat tissue (radioimmunoassay); type: cell-based
Method: GTN (10^−6 M) was added to the chamber and, 1 minute after exposure to the drug, rings (usually 3-5) were taken, wrapped with aluminum foil and immediately frozen in liquid nitrogen for storage. Control sample group was treated with the vehicle solution only. At the time of analysis, rings were thawed, blotted over a dry gauzed and weighted. A known weight of tissue was homogenized in 2 ml ice-cold modified Hank's balanced salt solution containing (in gram/liter) NaCl 8; KCl 0.4; glucose 1; KH2PO4 0.06; Na2HPO4 0.047; Phenol red 0.017 and further containing 25 mM EDTA (disodium salt). The homogenate was centrifuged at 4000 g (force units) for 10 minutes at 2-4° C. and the supernatant was thereafter transferred into fresh pre-cooled test tube containing 1 ml of acetonitrile. The tubes were vortex mixed for a few seconds and subsequently centrifuged at 4000 g for 5 minutes at 2-4° C., to remove the precipitated protein. Each supernatant was transferred into a clean test tube and evaporated to dryness under a stream of nitrogen at 55° C. The dry residue was reconstituted with 10 volumes of Tris-EDTA buffer pH 7.5 (0.05 M Tris containing 4 mM EDTA). Aliquots of 100 μl of the reconstituted solution in duplicate were used for c-GMP measurements using Amersham RIA kit, as is described in Haj-Yehia & Benet [Pharmacology, 1995, 273, 1, pp. 94-100]. Standard curves were plotted with six concentrations (0, 0.5, 1, 2, 4 and 8 pmoles of c-GMP per tube).
The NO-tolerance effect of GTN and NO-donor compounds according to the present invention was measured by following the production of c-GMP in slices of thoracic aorta of rats. Thus, the production of c-GMP was measured as described in the methods section above for the reference NO-donor compound GTN, and for the NO-donors of the present invention Pet-2, Pet-3, Pet-7, Pet-8, Pet-10, Pet-12, Pet-24, Pet-59, Pet-106, Pet-107, Pet-120, Pet-147, Pet-149, Pet-152, Pet-154 and Pet-155.

isolated rat aorta = test: Chronic administration of Pet-120 and vasoactivity determination in isolated aorta; type: in vivo; conditions: Pet-120 for 7 days
Method: Male Sprague Dawley rats (250 to 300 grams) were used and housed under constant temperature and humidity conditions. The animals were anesthetized with intraperitoneal injection of ketamine and xylazine combination (50 and 10 mg/kg, respectively). An osmotic miniature pump (ALZA Corp., Palo Alto, Calif.) delivering constant volume (10 μl/hour) of vehicle and Pet-120 was connected to one of the intravenous catheters. The animals received 200 μg/hour for 7 days. As control, a similar number of animals underwent the same surgical procedure and received the vehicle alone (10 μl/hour of a solution consisting of 30% ethanol and 30% propylene glycol in sterile distilled water for injection). At the end of the infusion periods the rats were anesthetized by the combination described above. The abdomen was opened by midline incision and the thoracic aorta was isolate, washed and cleaned from the surrounding tissues.
The aorta of the rats which were treated as described hereinabove was cut into rings of 4-5 mm long each. The rings were mounted under 1 g tension in organ bath containing 30 ml of Krebs-Hansliet solution (pH 7.4) of the following composition (mM): NaCl […], CaCl2 1.6, MgSO4 1.2, KH2PO4 1.2, NaHCO3 25.0, D-glucose 11.1. At 37 C° and gassed with 95% O2- 5% CO2. […]

Sprague-Dawley rats = test: Effect of Pet-120 on mean arterial blood pressure (MABP) after intravenous bolus infusion; type: in vivo, rat; conditions: 50 micrograms Pet-120 after 10 micrograms phenylephrine
Method: Male Sprague-Dawley rats weighing 310 grams at the beginning of the experiments were anesthetized with ketamine and xylazine (50 and 10 mg/kg, respectively), and an osmotic miniature pump (model 2002; ALZA Co filled with L-NAME) was canulated to right jugular vien (RJV) and implanted subcutaneously at the dorsum of the neck. L-NAME was infusion from ALZA miniature pump at a rate of 500 ng/minute for 24 hours. One day after the rat was anesthetized again with ketamine and xylazine and the both left jugular vein (LJV) and right common carotid (for MABP monitoring) was canulated. After the rats stabilized, Pet-120 was administered through the LJV (50 μg).
The efficacy of Pet-120, an exemplary NO-donating compound according to some embodiments of the present invention, was assayed as presented hereinabove in animals which were treated with phenylephrine so as to heighten their mean arterial blood pressure.

[2] = test system: cyclic-GMP in isolated aorta of rats; test: Induction of in vivo nitrate tolerance (cGMP in isolated aorta of rats pre-treated in vivo); design: species or system rat; conditions: rats pre-treated in vivo with the same compound
Method: For c-GMP levels and tolerance development, the rat's thoracic aorta was isolated after exposure to the tested compound in vivo, and measured as described above in the in vitro assays.
Male Sprague Dawley rats (220 to 250 grams) were housed under constant temperature and humidity conditions. Light was maintained at a 12/12 light dark cycle. Except for 12 hours before the experiment, when food fasting was initiated, all rats had free access to standard rat pellet diet and tap water. The animals were anesthetized by intraperitoneal injection of ketamine and xylazine combination (50 and 10 milligram per kilogram, respectively). […] The catheters were filled with normal saline solution containing 1000 IU/ml of heparin and plugged with a metal pin. Catheters were externalized to the back of the neck region and secured by a polyester felt disk.
After implantation, the rats were individually housed until they regained their preoperative weight and appeared healthy (3 to 4 days post-operation). At this time point (day 0), an osmotic mini-pump (Alza Corp., Palo Alto, Calif.) delivering constant volume (10 μl/hour) of vehicle or drug was connected to one of the intravenous catheters.
For inducing tolerance to the tested NO-donor according to the present invention, the animals received 200 μg/hour of the tested compound for 16 hours (short-term-induced tolerance). A similar number of animals were processed by the same surgical procedure and received the vehicle alone (10 μl/hour of a solution consisting of 30% ethanol and 30% propylene glycol in sterile distilled water for injection).
At the end of the infusion periods used for the development of tolerance (16 hour), the rats were anesthetized as described above, the two catheters were externalized and the delivering catheters were disconnected from the mini-pump. The abdomen was opened by midline incision and the thoracic aorta were isolated, washed and cleaned from the surrounding tissues. […]

For Cc1nc(-c2ccc([N+](=O)[O-])cc2)sc1CCO[N+](=O)[O-] [Pet-120, 4-Methyl-5-(2-nitrooxy-ethyl)-2-(4-nitro-phenyl)-thiazole], the “accumulation of cyclic-GMP as compared with GTN” value ([1]; isolated rat aorta, radioimmunoassay) was “increased levels of cGMP”, the “cGMP Post-infusion” value ([1]; rat thoracic aorta, post-infusion (repeated treatment)) was 133 ± 12 pmol/g tissue and the “tolerance induction after daily in-vivo administration over 7 days versus single dose (vasorelaxation in isolated aorta)” value (isolated rat aorta) was “absence of tolerance inducement; also recorded: not to induce tolerance”. For the same molecule, the “effect on mean arterial blood pressure (MABP)” value (Sprague-Dawley rats) was “reducing the MABP to its original levels” and the “tolerance induction by cyclic-GMP accumulation in aorta of rats pre-treated in vivo” value [2] was “absence of tolerance induction”.
